# Paper PMC11345841, “Exploring 2-Sulfonylpyrimidine Warheads as Acrylamide Surrogates for Targeted Covalent Inhibition: A BTK Story” (Journal of Medicinal Chemistry, 2024)
# Like-named read-outs stand apart in the source and are kept apart here.
# Key:
# Test in all cases: KINOMEscan ScanTK
# Assay type in all cases: binding
# EGFR(L858R) = molecular target: T1, EGFR(L858R) (Homo sapiens, UniProt P00533, L858R)
# T1 construct: purchased Eurofins DiscoverX KINOMEscan (scanTK)
# FGFR3 = molecular target: T2, FGFR3 (Homo sapiens, UniProt P22607)
# T2 construct: purchased Eurofins DiscoverX KINOMEscan (scanTK)
# KIT(V559D) = molecular target: T3, KIT(V559D) (Homo sapiens, UniProt P10721, V559D)
# T3 construct: purchased Eurofins DiscoverX KINOMEscan (scanTK)
# [1] = molecular target: T4, ABL1(E255K)-phosphorylated (Homo sapiens, UniProt P00519, E255K); conditions: for difference in %Control from reference Ib at 1 µM: read-out: % difference (compound - Ib %Control)
# T4 construct: purchased Eurofins DiscoverX KINOMEscan (scanTK)
# TRKC = molecular target: T5, TRKC (Homo sapiens, UniProt Q16288)
# T5 construct: purchased Eurofins DiscoverX KINOMEscan (scanTK)
# KIT = molecular target: T6, KIT (Homo sapiens, UniProt P10721)
# T6 construct: purchased Eurofins DiscoverX KINOMEscan (scanTK)
# [2] = molecular target: T7, ABL1(M351T)-phosphorylated (Homo sapiens, UniProt P00519, M351T)
# T7 construct: purchased Eurofins DiscoverX KINOMEscan (scanTK)
# [3] = molecular target: T8, ABL1(H396P)-phosphorylated (Homo sapiens, UniProt P00519, H396P)
# T8 construct: purchased Eurofins DiscoverX KINOMEscan (scanTK)
# MERTK = molecular target: T9, MERTK (Homo sapiens, UniProt Q12866)
# T9 construct: purchased Eurofins DiscoverX KINOMEscan (scanTK)
# T9 sequence (Q12866 21-999): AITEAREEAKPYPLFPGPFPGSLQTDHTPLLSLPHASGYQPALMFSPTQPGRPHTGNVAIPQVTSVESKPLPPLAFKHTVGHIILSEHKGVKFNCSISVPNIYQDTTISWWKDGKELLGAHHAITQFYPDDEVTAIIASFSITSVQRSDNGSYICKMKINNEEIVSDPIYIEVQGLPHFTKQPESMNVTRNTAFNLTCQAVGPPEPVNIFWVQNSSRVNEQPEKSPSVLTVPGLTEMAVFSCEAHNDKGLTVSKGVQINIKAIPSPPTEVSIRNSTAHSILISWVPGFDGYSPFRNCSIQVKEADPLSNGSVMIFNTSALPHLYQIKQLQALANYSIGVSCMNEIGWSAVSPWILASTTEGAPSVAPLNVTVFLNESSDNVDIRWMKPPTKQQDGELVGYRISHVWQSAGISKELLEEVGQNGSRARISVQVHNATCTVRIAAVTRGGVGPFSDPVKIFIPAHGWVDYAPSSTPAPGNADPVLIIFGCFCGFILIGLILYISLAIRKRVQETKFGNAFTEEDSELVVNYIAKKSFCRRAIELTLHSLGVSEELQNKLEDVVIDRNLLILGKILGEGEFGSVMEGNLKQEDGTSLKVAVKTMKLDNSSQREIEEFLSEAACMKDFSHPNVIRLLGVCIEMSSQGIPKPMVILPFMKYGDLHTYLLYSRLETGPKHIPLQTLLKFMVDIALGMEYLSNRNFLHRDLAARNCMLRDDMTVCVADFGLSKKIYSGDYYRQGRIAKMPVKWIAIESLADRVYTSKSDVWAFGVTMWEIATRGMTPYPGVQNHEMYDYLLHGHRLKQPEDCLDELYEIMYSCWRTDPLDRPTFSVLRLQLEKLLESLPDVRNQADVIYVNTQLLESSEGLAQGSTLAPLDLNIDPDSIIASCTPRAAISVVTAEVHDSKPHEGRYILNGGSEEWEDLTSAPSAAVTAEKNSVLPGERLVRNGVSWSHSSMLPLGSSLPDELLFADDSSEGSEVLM
# TEC = molecular target: T10, TEC (Homo sapiens, UniProt P42680)
# T10 construct: purchased Eurofins DiscoverX KINOMEscan (scanTK)
# T10 sequence (P42680 1-631): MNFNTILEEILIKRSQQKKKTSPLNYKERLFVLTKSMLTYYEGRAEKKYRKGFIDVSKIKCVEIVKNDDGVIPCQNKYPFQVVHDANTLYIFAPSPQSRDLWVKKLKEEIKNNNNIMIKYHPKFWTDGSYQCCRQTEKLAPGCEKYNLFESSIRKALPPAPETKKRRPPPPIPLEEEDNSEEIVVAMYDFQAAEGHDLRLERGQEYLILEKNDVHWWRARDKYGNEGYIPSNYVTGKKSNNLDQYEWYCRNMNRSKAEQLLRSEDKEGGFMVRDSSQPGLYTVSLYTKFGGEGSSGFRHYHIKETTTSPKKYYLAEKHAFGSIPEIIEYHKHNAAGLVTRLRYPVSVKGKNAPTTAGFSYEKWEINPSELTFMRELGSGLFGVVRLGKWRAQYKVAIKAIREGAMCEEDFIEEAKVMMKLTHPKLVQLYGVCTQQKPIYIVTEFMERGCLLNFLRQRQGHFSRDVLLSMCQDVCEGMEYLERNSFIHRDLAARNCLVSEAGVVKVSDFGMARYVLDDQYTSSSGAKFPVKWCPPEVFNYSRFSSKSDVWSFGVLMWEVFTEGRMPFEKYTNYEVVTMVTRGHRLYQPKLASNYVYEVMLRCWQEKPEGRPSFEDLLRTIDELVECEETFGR
# TRKB = molecular target: T11, TRKB (Homo sapiens, UniProt Q16620)
# T11 construct: purchased Eurofins DiscoverX KINOMEscan (scanTK)
# [4] = @1000nM, TRKC, read-out: %Control
# [5] = TRKC, read-out: %Control @1000nM
# [6] = @1000nM, TRKB, read-out: %Control
# [7] = TRKB, read-out: %Control @1000nM
# T11 sequence (Q16620 32-822): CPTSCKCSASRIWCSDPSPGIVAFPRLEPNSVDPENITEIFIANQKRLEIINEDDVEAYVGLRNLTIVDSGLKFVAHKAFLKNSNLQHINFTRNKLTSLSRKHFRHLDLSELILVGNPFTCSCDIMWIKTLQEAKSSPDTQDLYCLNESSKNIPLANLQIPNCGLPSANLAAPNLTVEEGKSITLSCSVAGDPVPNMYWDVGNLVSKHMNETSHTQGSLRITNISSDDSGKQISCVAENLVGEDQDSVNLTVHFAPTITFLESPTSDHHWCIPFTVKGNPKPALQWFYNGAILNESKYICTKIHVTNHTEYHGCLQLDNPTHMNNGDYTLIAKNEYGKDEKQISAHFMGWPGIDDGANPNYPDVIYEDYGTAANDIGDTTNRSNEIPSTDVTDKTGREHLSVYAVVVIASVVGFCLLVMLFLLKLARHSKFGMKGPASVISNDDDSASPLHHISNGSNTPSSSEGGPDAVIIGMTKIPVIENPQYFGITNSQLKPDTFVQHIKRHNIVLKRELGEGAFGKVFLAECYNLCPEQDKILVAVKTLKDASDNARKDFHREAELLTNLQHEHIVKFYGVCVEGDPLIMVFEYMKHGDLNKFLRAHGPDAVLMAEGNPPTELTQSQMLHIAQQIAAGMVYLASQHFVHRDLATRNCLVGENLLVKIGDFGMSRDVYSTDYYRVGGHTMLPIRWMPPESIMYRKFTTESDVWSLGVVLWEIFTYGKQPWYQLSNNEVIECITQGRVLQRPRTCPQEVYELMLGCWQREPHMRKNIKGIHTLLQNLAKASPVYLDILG
# T5 sequence (Q16288 32-839): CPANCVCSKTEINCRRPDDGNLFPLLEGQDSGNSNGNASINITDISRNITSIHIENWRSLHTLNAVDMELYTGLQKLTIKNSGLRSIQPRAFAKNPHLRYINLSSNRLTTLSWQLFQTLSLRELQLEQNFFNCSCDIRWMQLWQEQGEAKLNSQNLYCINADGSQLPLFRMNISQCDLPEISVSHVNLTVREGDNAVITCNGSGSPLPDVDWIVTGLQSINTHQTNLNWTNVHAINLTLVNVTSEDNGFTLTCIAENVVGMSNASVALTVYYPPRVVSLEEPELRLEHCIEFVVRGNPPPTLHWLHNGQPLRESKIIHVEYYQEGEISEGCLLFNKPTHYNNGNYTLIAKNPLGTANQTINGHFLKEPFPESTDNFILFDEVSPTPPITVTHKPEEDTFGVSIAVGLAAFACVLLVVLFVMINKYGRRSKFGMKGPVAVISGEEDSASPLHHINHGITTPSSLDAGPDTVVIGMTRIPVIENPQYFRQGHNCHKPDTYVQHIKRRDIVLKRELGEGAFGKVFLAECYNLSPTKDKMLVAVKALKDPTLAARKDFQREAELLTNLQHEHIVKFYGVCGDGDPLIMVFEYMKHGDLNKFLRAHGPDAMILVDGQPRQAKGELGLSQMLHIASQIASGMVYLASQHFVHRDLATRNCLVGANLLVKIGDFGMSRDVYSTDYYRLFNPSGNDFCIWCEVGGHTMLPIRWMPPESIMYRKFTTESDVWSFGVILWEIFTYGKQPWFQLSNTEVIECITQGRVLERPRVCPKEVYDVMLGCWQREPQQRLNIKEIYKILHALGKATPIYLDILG
# T1 sequence (P00533 25-1210 L858R): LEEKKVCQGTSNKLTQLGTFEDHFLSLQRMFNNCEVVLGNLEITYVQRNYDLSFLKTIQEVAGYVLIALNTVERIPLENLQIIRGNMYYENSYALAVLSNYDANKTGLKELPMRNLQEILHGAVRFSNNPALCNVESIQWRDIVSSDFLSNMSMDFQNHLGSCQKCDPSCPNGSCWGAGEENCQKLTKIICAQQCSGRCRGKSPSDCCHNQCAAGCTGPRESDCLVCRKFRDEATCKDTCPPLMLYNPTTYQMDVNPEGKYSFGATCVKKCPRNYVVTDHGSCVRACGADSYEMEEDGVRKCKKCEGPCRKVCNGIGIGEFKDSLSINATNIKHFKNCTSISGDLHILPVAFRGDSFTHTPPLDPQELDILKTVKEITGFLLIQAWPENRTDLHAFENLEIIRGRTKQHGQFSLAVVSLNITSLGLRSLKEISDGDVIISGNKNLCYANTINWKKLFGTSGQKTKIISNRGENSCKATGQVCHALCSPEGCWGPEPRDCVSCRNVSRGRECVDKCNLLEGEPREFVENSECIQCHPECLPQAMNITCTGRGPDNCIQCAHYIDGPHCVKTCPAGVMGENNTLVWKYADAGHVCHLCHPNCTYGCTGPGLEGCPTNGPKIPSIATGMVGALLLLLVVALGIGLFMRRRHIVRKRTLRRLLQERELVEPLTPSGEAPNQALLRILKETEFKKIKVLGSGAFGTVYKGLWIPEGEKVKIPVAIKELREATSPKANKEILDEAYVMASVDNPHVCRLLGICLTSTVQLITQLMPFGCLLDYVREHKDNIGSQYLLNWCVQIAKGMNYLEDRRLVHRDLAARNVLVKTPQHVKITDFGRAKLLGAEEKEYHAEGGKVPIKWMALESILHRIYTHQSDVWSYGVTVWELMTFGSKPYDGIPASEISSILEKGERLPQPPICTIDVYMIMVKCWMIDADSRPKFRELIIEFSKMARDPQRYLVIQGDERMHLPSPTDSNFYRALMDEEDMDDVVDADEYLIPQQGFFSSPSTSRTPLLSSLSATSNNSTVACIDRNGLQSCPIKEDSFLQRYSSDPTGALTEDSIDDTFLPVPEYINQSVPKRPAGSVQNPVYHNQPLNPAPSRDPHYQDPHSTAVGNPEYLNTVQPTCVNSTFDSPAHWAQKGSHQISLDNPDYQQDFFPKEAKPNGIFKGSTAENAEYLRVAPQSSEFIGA
# T6 sequence (P10721 26-976): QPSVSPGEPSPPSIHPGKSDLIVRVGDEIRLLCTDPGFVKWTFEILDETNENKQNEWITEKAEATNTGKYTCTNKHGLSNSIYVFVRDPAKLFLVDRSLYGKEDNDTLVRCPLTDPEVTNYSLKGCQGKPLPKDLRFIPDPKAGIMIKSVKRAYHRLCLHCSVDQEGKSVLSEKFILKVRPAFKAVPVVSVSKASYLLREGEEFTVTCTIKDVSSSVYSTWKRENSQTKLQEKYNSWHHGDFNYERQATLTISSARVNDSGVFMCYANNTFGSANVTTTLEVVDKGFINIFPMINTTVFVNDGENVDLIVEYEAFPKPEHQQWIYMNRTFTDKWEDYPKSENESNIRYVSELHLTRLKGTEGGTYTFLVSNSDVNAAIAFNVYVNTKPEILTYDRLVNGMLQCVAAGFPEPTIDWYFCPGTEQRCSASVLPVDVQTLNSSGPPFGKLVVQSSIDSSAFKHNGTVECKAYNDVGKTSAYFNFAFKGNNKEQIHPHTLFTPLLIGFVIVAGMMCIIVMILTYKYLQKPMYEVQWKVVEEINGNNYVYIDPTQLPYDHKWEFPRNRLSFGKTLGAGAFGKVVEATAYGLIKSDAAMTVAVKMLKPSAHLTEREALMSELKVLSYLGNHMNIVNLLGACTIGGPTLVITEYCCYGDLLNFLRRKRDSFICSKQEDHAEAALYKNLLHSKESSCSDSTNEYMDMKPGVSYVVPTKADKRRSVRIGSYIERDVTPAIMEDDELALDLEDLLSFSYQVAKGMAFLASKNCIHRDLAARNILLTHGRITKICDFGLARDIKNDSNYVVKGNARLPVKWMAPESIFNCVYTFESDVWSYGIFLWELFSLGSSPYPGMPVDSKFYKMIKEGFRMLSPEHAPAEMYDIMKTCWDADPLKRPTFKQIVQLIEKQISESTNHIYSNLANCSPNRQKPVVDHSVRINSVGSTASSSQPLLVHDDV
# T3 sequence (P10721 26-976 V559D): as the sequence (P10721 26-976) above, with V534D counted along it
# T2 sequence (P22607 23-806): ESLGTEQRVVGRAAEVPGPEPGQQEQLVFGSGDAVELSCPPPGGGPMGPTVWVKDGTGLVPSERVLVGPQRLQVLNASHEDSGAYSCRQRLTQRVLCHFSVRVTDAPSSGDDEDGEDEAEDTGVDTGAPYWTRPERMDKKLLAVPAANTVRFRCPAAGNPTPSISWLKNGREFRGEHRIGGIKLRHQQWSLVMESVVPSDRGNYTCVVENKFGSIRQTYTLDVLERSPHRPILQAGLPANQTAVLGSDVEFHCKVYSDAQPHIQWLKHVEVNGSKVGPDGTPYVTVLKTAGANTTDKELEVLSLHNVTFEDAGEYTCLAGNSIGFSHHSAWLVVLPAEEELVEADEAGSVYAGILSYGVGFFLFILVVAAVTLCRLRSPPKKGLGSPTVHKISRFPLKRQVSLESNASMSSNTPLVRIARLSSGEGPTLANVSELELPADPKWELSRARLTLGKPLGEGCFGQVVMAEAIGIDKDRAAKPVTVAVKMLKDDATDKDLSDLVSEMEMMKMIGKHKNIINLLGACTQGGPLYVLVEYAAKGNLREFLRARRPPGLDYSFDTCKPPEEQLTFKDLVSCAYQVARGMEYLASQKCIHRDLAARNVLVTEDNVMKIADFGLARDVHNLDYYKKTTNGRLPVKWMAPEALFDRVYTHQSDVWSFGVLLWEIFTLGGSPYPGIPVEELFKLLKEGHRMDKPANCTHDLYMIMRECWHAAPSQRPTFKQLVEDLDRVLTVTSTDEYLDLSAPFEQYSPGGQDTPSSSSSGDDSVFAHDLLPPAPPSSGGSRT
Compound,%Control difference from compound Ib at 1 µM (EGFR(L858R); @1000nM),"remaining binding at 1 µM (EGFR(L858R); @1000nM, read-out: %Control)",remaining binding at 1 µM (EGFR(L858R); read-out: %Control @1000nM),difference in %Control versus compound Ib at 1 µM (FGFR3; @1000nM),"remaining binding at 1 µM (FGFR3; @1000nM, read-out: %Control)",remaining binding at 1 µM (FGFR3; read-out: %Control @1000nM),"remaining binding at 1 µM (KIT(V559D); @1000nM, read-out: %Control)",remaining binding at 1 µM (KIT(V559D); read-out: %Control @1000nM),difference in %Control from reference Ib at 1 µM ([1]; @1000nM),"remaining binding at 1 µM ([1]; @1000nM, read-out: %Control)",remaining binding at 1 µM ([1]; read-out: %Control @1000nM),"difference in %Control versus compound Ib at 1 µM (TRKC; @1000nM, TRKC)","remaining binding at 1 µM (KIT; @1000nM, read-out: %Control)",remaining binding at 1 µM (KIT; read-out: %Control @1000nM),"remaining binding at 1 µM ([3]; @1000nM, read-out: %Control)",remaining binding at 1 µM ([3]; read-out: %Control @1000nM),"remaining binding at 1 µM (MERTK; @1000nM, read-out: %Control)",remaining binding at 1 µM (MERTK; read-out: %Control @1000nM),"remaining binding at 1 µM (TEC; @1000nM, read-out: %Control)",remaining binding at 1 µM (TEC; read-out: %Control @1000nM),other results
"CNC(=O)c1cnc(S(C)(=O)=O)nc1N1CCCC(n2nc(-c3ccc(Oc4ccccc4)cc3)c3c(N)ncnc32)C1 (stereo not drawn) [Compound 8d, 4-(3-(4-Amino-3-(4-phenoxyphenyl)-1H-pyrazolo[3,4-d]pyrimidin-1-yl)piperidin-1-yl)-N-methyl-2-(methylsulfonyl)pyrimidine-5-carboxamide]",39.1%,41%,41%,51%,99%,99%,60%,60%,26%,90%,90%,-3%,99%,99%,79%,79%,49%,49%,40%,40%,"remaining binding at 1 µM (TRKC; [4]): 92%; remaining binding at 1 µM (TRKC; [5]): 92%; difference in %Control versus compound Ib at 1 µM (KIT; @1000nM): 58%; difference in %Control from compound Ib at 1 µM ([2]; @1000nM): 9%; remaining binding at 1 µM ([2]; @1000nM, read-out: %Control): 74%; remaining binding at 1 µM ([2]; read-out: %Control @1000nM): 74%; %Control difference versus compound Ib at 1 µM ([3]; @1000nM): -1%; difference in %Control versus compound Ib at 1 µM (TRKB; @1000nM, TRKB): -5%; remaining binding at 1 µM (TRKB; [6]): 87%; remaining binding at 1 µM (TRKB; [7]): 87%"
"C=CC(=O)N1CCC[C@@H](n2nc(-c3ccc(Oc4ccccc4)cc3)c3c(N)ncnc32)C1 [Compound 1g, Ibrutinib, reference compound]",–,–,–,–,48%,48%,27%,27%,–,64%,64%,–,41%,41%,80%,80%,38%,38%,20%,20%,remaining binding at 1 µM (TRKC; read-out: %Control): 95%; remaining binding at 1 µM (TRKC; read-out: %Control @1000nM): 95%; remaining binding at 1 µM (TRKB; read-out: %Control): 92%; remaining binding at 1 µM (TRKB; read-out: %Control @1000nM): 92%
"Cc1cnc(S(C)(=O)=O)nc1N1CCCC(n2nc(-c3ccc(Oc4ccccc4)cc3)c3c(N)ncnc32)C1 (stereo not drawn) [Compound 8a, 1-(1-(5-Methyl-2-(methylsulfonyl)pyrimidin-4-yl)piperidin-3-yl)-3-(4-phenoxyphenyl)-1H-pyrazolo[3,4-d]pyrimidin-4-amine]",81.1%,83%,83%,44%,92%,92%,37%,37%,12%,76%,76%,-17%,61%,61%,84%,84%,60%,60%,27%,27%,"remaining binding at 1 µM (TRKC; [4]): 78%; remaining binding at 1 µM (TRKC; [5]): 78%; difference in %Control versus compound Ib at 1 µM (KIT; @1000nM): 20%; difference in %Control from compound Ib at 1 µM ([2]; @1000nM): 0%; remaining binding at 1 µM ([2]; @1000nM, read-out: %Control): 65%; remaining binding at 1 µM ([2]; read-out: %Control @1000nM): 65%; %Control difference versus compound Ib at 1 µM ([3]; @1000nM): 4%; difference in %Control versus compound Ib at 1 µM (TRKB; @1000nM, TRKB): -17%; remaining binding at 1 µM (TRKB; [6]): 75%; remaining binding at 1 µM (TRKB; [7]): 75%"

# The next lines start with results.
%Control difference from compound Ib at 1 µM (EGFR(L858R); @1000nM),"remaining binding at 1 µM (EGFR(L858R); @1000nM, read-out: %Control)",remaining binding at 1 µM (EGFR(L858R); read-out: %Control @1000nM),difference in %Control versus compound Ib at 1 µM (FGFR3; @1000nM),"remaining binding at 1 µM (FGFR3; @1000nM, read-out: %Control)",remaining binding at 1 µM (FGFR3; read-out: %Control @1000nM),"remaining binding at 1 µM (KIT(V559D); @1000nM, read-out: %Control)",remaining binding at 1 µM (KIT(V559D); read-out: %Control @1000nM),difference in %Control from reference Ib at 1 µM ([1]; @1000nM),"remaining binding at 1 µM ([1]; @1000nM, read-out: %Control)",remaining binding at 1 µM ([1]; read-out: %Control @1000nM),"difference in %Control versus compound Ib at 1 µM (TRKC; @1000nM, TRKC)","remaining binding at 1 µM (KIT; @1000nM, read-out: %Control)",remaining binding at 1 µM (KIT; read-out: %Control @1000nM),"remaining binding at 1 µM ([3]; @1000nM, read-out: %Control)",remaining binding at 1 µM ([3]; read-out: %Control @1000nM),"remaining binding at 1 µM (MERTK; @1000nM, read-out: %Control)",remaining binding at 1 µM (MERTK; read-out: %Control @1000nM),"remaining binding at 1 µM (TEC; @1000nM, read-out: %Control)",remaining binding at 1 µM (TEC; read-out: %Control @1000nM),Compound,other results
64.1%,66%,66%,48%,96%,96%,70%,70%,17%,81%,81%,-18%,93%,93%,77%,77%,71%,71%,53%,53%,"CCOC(=O)c1cnc(S(C)(=O)=O)nc1N1CCC[C@@H](n2nc(-c3ccc(Oc4ccccc4)cc3)c3c(N)ncnc32)C1 [Compound 8c, Ethyl (R)-4-(3-(4-Amino-3-(4-phenoxyphenyl)-1H-pyrazolo[3,4-d]pyrimidin-1-yl)piperidin-1-yl)-2-(methylsulfonyl)pyrimidine-5-carboxylate]","remaining binding at 1 µM (TRKC; [4]): 77%; remaining binding at 1 µM (TRKC; [5]): 77%; difference in %Control versus compound Ib at 1 µM (KIT; @1000nM): 52%; difference in %Control from compound Ib at 1 µM ([2]; @1000nM): 12%; remaining binding at 1 µM ([2]; @1000nM, read-out: %Control): 77%; remaining binding at 1 µM ([2]; read-out: %Control @1000nM): 77%; %Control difference versus compound Ib at 1 µM ([3]; @1000nM): -3%; difference in %Control versus compound Ib at 1 µM (TRKB; @1000nM, TRKB): -15%; remaining binding at 1 µM (TRKB; [6]): 77%; remaining binding at 1 µM (TRKB; [7]): 77%"
72.1%,74%,74%,47%,95%,95%,75%,75%,17%,81%,81%,-17%,71%,71%,92%,92%,67%,67%,32%,32%,"COC(=O)c1cnc(S(C)(=O)=O)nc1N1CCCC(n2nc(-c3ccc(Oc4ccccc4)cc3)c3c(N)ncnc32)C1 (stereo not drawn) [Compound 8b, Methyl 4-(3-(4-Amino-3-(4-phenoxyphenyl)-1H-pyrazolo[3,4-d]pyrimidin-1-yl)piperidin-1-yl)-2-(methylsulfonyl)pyrimidine-5-carboxylate]","remaining binding at 1 µM (TRKC; [4]): 78%; remaining binding at 1 µM (TRKC; [5]): 78%; difference in %Control versus compound Ib at 1 µM (KIT; @1000nM): 30%; difference in %Control from compound Ib at 1 µM ([2]; @1000nM): 1%; remaining binding at 1 µM ([2]; @1000nM, read-out: %Control): 66%; remaining binding at 1 µM ([2]; read-out: %Control @1000nM): 66%; %Control difference versus compound Ib at 1 µM ([3]; @1000nM): 12%; difference in %Control versus compound Ib at 1 µM (TRKB; @1000nM, TRKB): 7%; remaining binding at 1 µM (TRKB; [6]): 99%; remaining binding at 1 µM (TRKB; [7]): 99%"
